According to article PMC9127750, “Structure-based design of CDC42 effector interaction inhibitors for the treatment of cancer” (Cell reports, 2022):
Several values for one entry are separate records, joined by “and”; a condition that tells them apart may be missing. Equal entries are not always repeated.

Tested on: WM3248 melanoma cells, 486 antibodies
Assay: Reverse phase protein arrays (RPPA);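 on Cyclin.E1.R.V RPPA level: ratio of treated to vehicle (0 µM) normalized linear protein signal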;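 on DDB.1.R.V RPPA level: ratio of treated to vehicle (0 µM) normalized linear protein signal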
Type: cell-based, Human
Conditions: 20 uM
Description: Pellets were snap frozen in liquid nitrogen and shipped to MD Anderson Cancer Center core RPPA facility for RPPA analysis (Table S5). Three biological replicates for each sample were generated.
Nomenclatures on the RPPA heatmaps: name_of_antibody.species_of_antibody.status_of_antibody. V - antibody validated; C - validation of antibody in progress; Q - antibody nonspecific; E – under evaluation; antibodies raised in M - mouse, G - goat, R - rabbit, or T - rat.

CN(C)c1cccc(Nc2cc(-c3ccccc3)nc(C3CCNCC3)n2)c1 [ARN22089, N1,N1-dimethyl-N3-(6-phenyl-2-(piperidin-4-yl)pyrimidin-4-yl)benzene-1,3-diamine]
Cyclin.D3.M.V RPPA level (replicates): 0.858 and 0.793 and 0.870
Cyclin.E1.R.V RPPA level (replicates): 1.034 and 0.978 and 0.864
Cyclophilin.F.M.V RPPA level (replicates): 1.052 and 0.867 and 0.858
D.a.Tubulin.R.V RPPA level (replicates): 0.908 and 1.131 and 1.049
DAPK1_pS308.M.C RPPA level (replicates): 1.387 and 1.152
DAPK2.R.C RPPA level (replicates): 0.896 and 1.008 and 1.104
DDB.1.R.V RPPA level (replicates): 1.000 and 0.862 and 0.981
DDR1.R.V RPPA level (replicates): 1.126 and 0.892 and 0.988
DDR1_pY513.R.C RPPA level (replicates): 1.221 and 1.216 and 0.940
DJ1.R.V RPPA level (replicates): 0.994 and 0.831 and 1.019
DM.Histone.H3.R.V RPPA level (replicates): 4.051 and 0.967
DM.K9.Histone.H3.M.V RPPA level (replicates): 1.226 and 2.170 and 0.946
DNA.Ligase.IV.R.C RPPA level (replicates): 0.890 and 0.918 and 1.135
DNA_POLG.R.V RPPA level (replicates): 1.260 and 0.956 and 0.859
c.Jun_pS73.R.V RPPA level (replicates): 0.959 and 1.053 and 0.897
c.Kit.R.V RPPA level (replicates): 1.404 and 1.046 and 0.973
c.Met_pY1234_Y1235.R.V RPPA level (replicates): 0.958 and 1.104 and 1.130
c.Myc.R.C RPPA level (replicates): 0.956 and 0.888 and 0.971
cGAS.R.V RPPA level (replicates): 1.158 and 0.984
cdc2_pY15.R.C RPPA level (replicates): 0.840 and 1.245 and 1.217
cdc25C.R.V RPPA level (replicates): 0.813 and 0.749 and 1.085
RPPA MYH11.R.C (single replicates): 1.235 and 1.080 and 0.987
RPPA Myosin.IIa.R.C (single replicates): 0.819 and 0.811 and 1.194
RPPA Myosin.IIa_pS1943.R.V (single replicates): 1.011 and 0.857 and 1.050
RPPA Myt1.R.C (single replicates): 0.843 and 1.001 and 1.193
RPPA N.Cadherin.R.V (single replicates): 1.047 and 1.081 and 0.976
RPPA N.Ras.M.V (single replicates): 0.921 and 0.893 and 0.971
RPPA NAPSIN.A.R.C (single replicates): 0.982 and 1.016 and 1.141
RPPA NDRG1_pT346.R.V (single replicates): 0.868 and 0.915 and 1.192
RPPA NDUFB4.R.V (single replicates): 1.100 and 0.998 and 0.982
RPPA NRF2.R.C (single replicates): 0.849 and 0.982 and 0.977
RPPA Notch1.R.V (single replicates): 1.052 and 1.121 and 0.952
RPPA Notch1.cleaved.R.V (single replicates): 0.740 and 0.849 and 1.080
RPPA Notch3.R.C (single replicates): 1.026 and 1.150 and 0.931
RPPA Oct.4.R.C (single replicates): 0.991 and 1.164 and 1.209
RPPA P.Cadherin.R.C (single replicates): 1.264 and 1.125
RPPA PAI.1.M.V (single replicates): 1.005 and 1.281 and 0.932
RPPA PAICS.R.C (single replicates): 0.803 and 0.811 and 1.058
RPPA PAK1.R.V (single replicates): 0.820 and 0.886 and 1.049
RPPA PAK4.R.V (single replicates): 1.076 and 0.939
RPPA PAK_pS474_S602_S560.R.V (single replicates): 1.380 and 1.298 and 0.931
RPPA PAK_pT423_T402.R.C (single replicates): 1.015 and 1.053 and 0.971
RPPA PAR.R.C (single replicates): 0.974 and 1.464 and 0.714
RPPA PARG.R.C (single replicates): 1.599 and 1.316 and 1.014
RPPA PARP.R.V (single replicates): 0.538 and 1.057 and 1.348
RPPA PAX6.R.V (single replicates): 1.001 and 1.058 and 0.982
RPPA PAX8.R.C (single replicates): 1.024 and 0.925 and 0.962
RPPA PCNA.M.C (single replicates): 0.783 and 0.854 and 0.955
RPPA PD.1.R.V (single replicates): 1.098 and 1.052 and 0.984
RPPA PD.L1.R.C (single replicates): 0.895 and 1.054 and 1.001
RPPA PDH.M.V (single replicates): 0.970 and 1.058 and 0.953
RPPA PDHA1.R.V (single replicates): 0.972 and 1.004 and 1.113
RPPA PDHK1.R.C (single replicates): 0.803 and 0.959 and 1.129
RPPA PDK1.R.V (single replicates): 1.000 and 1.250
RPPA PDK1_pS241.R.V (single replicates): 0.916 and 0.898 and 1.103
RPPA PEA.15.R.V (single replicates): 0.986 and 0.870 and 0.999
RPPA PEA.15_pS116.R.V (single replicates): 1.029 and 0.986
RPPA PERK.R.V (single replicates): 1.320 and 0.802 and 0.841
RPPA PGM1.R.V (single replicates): 0.846 and 0.933
RPPA PHGDH.R.C (single replicates): 0.989 and 0.962
RPPA PHLPP.R.V (single replicates): 1.674 and 0.930 and 0.767
RPPA PI3K.p85.R.C (single replicates): 1.023 and 0.792 and 0.886
RPPA PI3K.p110.a.R.C (single replicates): 0.804 and 0.921
RPPA PI3K.p110.b.M.C (single replicates): 0.988 and 0.918 and 0.941
RPPA PKA.a.R.V (single replicates): 0.974 and 0.780 and 1.028
RPPA PKC.a.b.II_pT638_T641.R.V (single replicates): 0.684 and 0.941 and 1.154
RPPA PKC.b.II_pS660.R.V (single replicates): 0.997 and 1.114 and 1.126
RPPA PKCa.R.V (single replicates): 0.630 and 2.106 and 1.942
RPPA PKM2.R.C (single replicates): 0.846 and 0.763
RPPA PLC.gamma1.R.V (single replicates): 1.296 and 0.944 and 0.963
RPPA PLC.gamma1_pS1248.R.V (single replicates): 0.837 and 0.893 and 0.954
RPPA PLC.gamma2_pY759.R.V (single replicates): 1.000 and 1.004 and 0.945
RPPA PLK1.R.C (single replicates): 1.107 and 0.592 and 1.060
RPPA PMS2.R.V (single replicates): 1.016 and 0.991 and 0.952
RPPA PR.R.V (single replicates): 0.957 and 0.966 and 0.945
RPPA PRAS40.M.C (single replicates): 1.496 and 1.229 and 0.955
RPPA PRAS40_pT246.R.V (single replicates): 1.099 and 1.166
RPPA PRC1_pT481.R.C (single replicates): 1.163 and 1.114 and 0.975
RPPA PREX1.R.V (single replicates): 0.874 and 0.851 and 1.124
RPPA PTEN.R.V (single replicates): 1.018 and 1.109 and 1.120
RPPA PTPN12.R.V (single replicates): 1.234 and 1.447
